molecular target: human recombinant PDE4B1 enzyme (Homo sapiens (Human), UniProt Q07343); assay: Inhibition of PDE4B1 activity by cAMP HTRF assay; format: biochemical; settings: human recombinant PDE4B1, cAMP 40 nM, pH 7.4
Protocol: Determination of the inhibition of the compounds on PDE4B1 activity by using cAMP HTRF® assay
The inhibitory effect of the compounds on human PDE4B1 enzyme activity was determined by quantifying the 5′-adenosine monophosphate (5′-AMP) formed from 3′,5′-cyclic adenosine monophosphate (cAMP).
The test compound or water (control) and human recombinant PDE4B1 enzyme (4.8 U) were mixed in a buffer solution (pH 7.4) consisting of 1× Hanks' balanced salt solution (HBSS), 5 mM HEPES, 3 mM MgCl2, and 0.1% BSA and incubated for 10 min. A cAMP enzyme substrate (final concentration 40 nM) was added, and the mixture was incubated at room temperature for 60 min. Then a fluorescent acceptor (Dye2 labeled with cAMP), a fluorescent donor (anti-cAMP antibody labeled with europium cryptate) and a non-specific phosphodiesterase inhibitor IBMX (3-isobutyl-1-methyl xanthine; final concentration 1 mM) were added. After 60 min, the fluorescence transfer related to the amount of remaining cAMP was measured on a microplate reader (Rubystar, BMG) at λex=337 nm, λem=620 nm and λem=665 nm. The enzyme activity is calculated from the ratio of the signals measured at 665 nm and 620 nm. The results are expressed as percent inhibition of the enzyme activity of the control (without PDE4 inhibitor). The enzyme was omitted for measurement of the basic control. The IC50 value (IC50=the concentration that caused the half-maximum inhibition of the specific activity of the control) is derived from dose-response measurements with eight different concentrations (n=2; repeated 2 times)

Chain of human recombinant PDE4B1 enzyme (Q07343 whole entry): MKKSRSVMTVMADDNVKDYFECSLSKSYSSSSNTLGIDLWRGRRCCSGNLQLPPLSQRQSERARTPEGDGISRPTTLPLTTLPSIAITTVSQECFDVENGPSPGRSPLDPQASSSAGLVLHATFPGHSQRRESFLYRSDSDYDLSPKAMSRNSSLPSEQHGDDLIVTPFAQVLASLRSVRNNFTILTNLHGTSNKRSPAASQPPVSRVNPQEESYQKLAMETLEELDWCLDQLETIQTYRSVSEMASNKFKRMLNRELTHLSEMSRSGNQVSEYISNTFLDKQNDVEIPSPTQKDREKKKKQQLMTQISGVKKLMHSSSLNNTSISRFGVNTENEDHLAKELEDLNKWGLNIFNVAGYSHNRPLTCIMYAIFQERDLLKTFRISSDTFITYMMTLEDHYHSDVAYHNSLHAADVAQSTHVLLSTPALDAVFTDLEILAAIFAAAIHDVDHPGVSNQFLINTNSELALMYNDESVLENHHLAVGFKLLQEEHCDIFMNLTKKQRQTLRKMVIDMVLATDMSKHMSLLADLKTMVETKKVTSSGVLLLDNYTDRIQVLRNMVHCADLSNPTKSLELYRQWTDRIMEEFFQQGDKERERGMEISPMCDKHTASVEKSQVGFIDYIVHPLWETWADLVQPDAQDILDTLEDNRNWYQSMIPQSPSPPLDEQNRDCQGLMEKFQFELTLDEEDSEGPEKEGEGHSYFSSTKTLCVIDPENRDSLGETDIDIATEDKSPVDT

Compound | IC50
CSCOc1cc(/C=C/n2c(C)cc(=O)cc2C)ccc1OC(F)F [Example 90, (E)-1-(3-methylthiomethoxy-4-difluoromethoxy-styryl)-2,6-dimethylpyridin-4(1H)-one] | 3.8 nM
COc1ccc(C(=O)Cn2c(C)cc(=O)cc2C)cc1OC1CCCC1 [Example 23, 1-(2-(3-cyclopentyloxy-4-methoxyphenyl)-2-oxoethyl)-2,6-dimethylpyridin-4(1H)-one] | 5 nM
COc1ccc(CCn2c(C)cc(=O)cc2C)cc1OCC1CC1 [Example 60, (E)-1-(3-cyclopropylmethoxy-4-methoxyphenethyl)-2,6-dimethylpyridin-4(1H)-one] | 1200 nM
COc1ccc(/C(Cn2c(C)cc(=O)cc2C)=N/O)cc1OCC1CC1 [Example 38-1, (Z)-1-(2-(3-cyclopropylmethoxy-4-methoxyphenyl)-2-(hydroxyimido)ethyl)-2,6-dimethylpyridin-4(1H)-one] | 1090 nM
COc1ccc(C(=O)Cn2c(C)cc(=O)cc2C)cc1O [Example 10, 1-(2-(3-hydroxy-4-methoxyphenyl)-2-oxoethyl)-2,6-dimethylpyridin-4(1H)-one] | 3300 nM
COc1ccc(C(=O)Cn2c(C)cc(=O)cc2C)cc1OC1CC1 [Example 19, 1-(2-(3-cyclopropyloxy-4-methoxyphenyl)-2-oxoethyl)-2,6-dimethylpyridin-4(1H)-one] | 4.6 nM
COc1ccc(C(=O)Cn2c(C)cc(=O)cc2C)cc1OCC(C)C [Example 16, 1-(2-(3-iso-butoxy-4-methoxyphenyl)-2-oxoethyl)-2,6-dimethylpyridin-4(1H)-one] | 10.3 nM
COc1ccc(C(=O)Cn2c(C)cc(=O)cc2C)cc1OC [Example 11, 1-(2-(3,4-dimethoxyphenyl)-2-oxoethyl)-2,6-dimethylpyridin-4(1H)-one] | 44 nM
COc1ccc(/C(Cn2c(C)cc(=O)cc2C)=N/OCS(C)(=O)=O)cc1OCC1CC1 [Example 44, (Z)-1-(2-(3-cyclopropylmethoxy-4-methoxyphenyl)-2-(methylsulfonemethoxyimido)ethyl)-2,6-dimethylpyridin-4(1H)-one] | 30 nM
COc1ccc(/C(=C/n2c(C)cc(=O)cc2C)C(N)=O)cc1OCC1CC1 [Example 107, (Z)-2-(3-cyclopropylmethoxy-4-methoxyphenyl)-3-(2,6-dimethyl-4-carbonylpyridin-1(4H)-yl)-acrylamide] | 450 nM
CCCOc1cc(C(=O)Cn2c(C)cc(=O)cc2C)ccc1OC [Example 13, 1-(2-(3-propoxy-4-methoxyphenyl)-2-oxoethyl)-2,6-dimethylpyridin-4(1H)-one] | 4.9 nM
COc1ccc(/C=C/n2c(C)cc(=O)cc2C)cc1O[C@@H]1CC[S+]([O-])C1 (single isomer, unassigned) [Example 86-1] | 310 nM
COc1ccc(/C=C/n2c(C)cc(=O)cc2C)cc1OC1CC=CC1 [Example 63, (E)-1-(3-(cyclopent-3-en-1-yloxy)-4-methoxystyryl)-2,6-dimethylpyridin-4(1H)-one] | 11.1 nM
CNC(=O)/C(=C\n1c(C)cc(=O)cc1C)c1ccc(OC)c(OCC2CC2)c1 [Example 108, (Z)-2-(3-cyclopropylmethoxy-4-methoxyphenyl)-3-(2,6-dimethyl-4-carbonylpyridin-1(4H)-yl)-N-methylacrylamide] | 760 nM
COc1ccc(/C=C/n2c(C)cc(=O)cc2C)cc1OC1CCCO1 (centres unmarked) [Example 70, (E)-1-((3-(tetrahydrofuran-2-yl)oxy-4-methoxy)-styryl)-2,6-dimethylpyridin-4(1H)-one] | 8.1 nM
Cc1cc(=O)cc(C)n1/C=C/c1ccc(OC(F)F)c(O[C@H]2CC[S+]([O-])C2)c1 (single isomer, unassigned) [Example 98-1] | 97 nM
COC(=O)/C(=C\n1c(C)cc(=O)cc1C)c1ccc(OC)c(OCC2CC2)c1 [Example 112, (Z)-methyl 2-(3-cyclopropylmethoxy-4-methoxyphenyl)-3-(2,6-dimethyl-4-carbonylpyridin-1(4H)-yl)-acrylate] | 138 nM
COc1ccc(/C=C/n2c(C)cc(=O)cc2C)cc1OCCS(C)(=O)=O [Example 79, (E)-1-(3-methylsulfoneethoxy-4-methoxystyryl)-2,6-dimethylpyridin-4(1H)-one] | 160 nM
Cc1cc(=O)cc(C)n1/C=C/c1ccc(OC(F)F)c(OCC[S+](C)[O-])c1 (centres unmarked) [Example 94, (E)-1-(3-methylsulfoxideethoxy-4-difluoromethoxystyryl)-2,6-dimethylpyridin-4(1H)-one] | 137 nM

Compound | IC50
Cc1cc(=O)cc(C)n1/C=C/c1ccc(OC(F)F)c(OC[S+](C)[O-])c1 (centres unmarked) [Example 91, (E)-1-(3-methylsulfoxidemethoxy-4-difluoromethoxystyryl)-2,6-dimethylpyridin-4(1H)-one] | 75 nM
COc1ccc(C(C#N)=Cn2c(C)cc(=O)cc2C)cc1OCC1CC1 (stereo in doubt) [Example 106, (E)-1-(2-(3-cyclopropylmethoxy-4-methoxyphenyl)-2-cyanoethenyl)-2,6-dimethylpyridin-4(1H)-one] | 2.7 nM
COc1ccc(C(=O)Cn2c(C)cc(=O)cc2C)cc1OC1CCCO1 (centres unmarked) [Example 31, 1-(2-(3-(tetrahydrofuran-2-yl)oxy-4-methoxyphenyl)-2-oxoethyl)-2,6-dimethylpyridin-4(1H)-one] | 26 nM
COc1ccc(C(O)Cn2c(C)cc(=O)cc2C)cc1OCC1CC1 (centres unmarked) [Example 1, 1-(2-(3-cyclopropylmethoxy-4-methoxyphenyl)-2-hydroxyethyl)-2,6, dimethylpyridin-4(1H)-one] | 760 nM
CCN(CC)C(=O)/C(=C\n1c(C)cc(=O)cc1C)c1ccc(OC)c(OCC2CC2)c1 [Example 110, (Z)-2-(3-cyclopropylmethoxy-4-methoxyphenyl)-3-(2,6-dimethyl-4-carbonylpyridin-1(4H)-yl)-N,N-diethylacrylamide] | 460 nM
CC#C/C(=C\n1c(C)cc(=O)cc1C)c1ccc(OC)c(OCC2CC2)c1 [Example 105, (Z)-1-(2-(3-cyclopropylmethoxy-4-methoxyphenyl)pent-1-en-3-yn-1-yl)-2,6-dimethylpyridin-4(1H)-one] | 3 nM
CO/N=C(/Cn1c(C)cc(=O)cc1C)c1ccc(OC)c(OCC2CC2)c1 [Example 40, (E)-1-(2-(3-cyclopropylmethoxy-4-methoxyphenyl)-2-(hydroxymethylimido)ethyl)-2,6-dimethylpyridin-4(1H)-one] | 6.8 nM
COc1ccc(/C=C/n2c(C)cc(=O)cc2C)cc1OCSC [Example 74, (E)-1-(3-methylthiomethoxy-4-methoxystyryl)-2,6-dimethylpyridin-4(1H)-one] | 38 nM
CCCCOc1cc(/C=C/n2c(C)cc(=O)cc2C)ccc1OC [Example 55, (E)-1-((3-n-butoxy-4-methoxy)-styryl)-2,6-dimethylpyridin-4(1H)-one] | 54 nM
COc1ccc(/C=C/n2c(C)cc(=O)cc2C)cc1OCC(C)(C)C [Example 57, (E)-1-((3-neopentyloxy-4-methoxy)-styryl)-2,6-dimethylpyridin-4(1H)-one] | 100 nM
COc1ccc(C(=O)Cn2c(C)cc(=O)cc2C)cc1OCC=C(C)C [Example 27, 1-(2-(3-((3-methylbut-2-en-1-yl)oxy)-4-methoxyphenyl)-2-oxoethyl)-2,6-dimethylpyridin-4(1H)-one] | 65 nM
COc1ccc(/C=C/n2c(C)cc(=O)cc2C)cc1OCC[S+](C)[O-] (centres unmarked) [Example 78, (E)-1-(3-methylsulfoxideethoxy-4-methoxystyryl)-2,6-dimethylpyridin-4(1H)-one] | 36 nM
CSCCOc1cc(/C=C/n2c(C)cc(=O)cc2C)ccc1OC(F)F [Example 93, (E)-1-(3-methylthioethoxy-4-difluoromethoxystyryl)-2,6-dimethylpyridin-4(1H)-one] | 12.9 nM
COc1ccc(C(=O)Cn2c(C)cc(=O)cc2C)cc1OCC1CC1 [Example 20, 1-(2-(3-cyclopropylmethoxy-4-methoxyphenyl)-2-oxo)ethyl-2,6-dimethylpyridin-4(1H)-one] | 13 nM
Cc1cc(=O)cc(C)n1/C=C/c1ccc(OC(F)F)c(OCCS(C)(=O)=O)c1 [Example 95, (E)-1-(3-methylsulfoneethoxy-4-difluoromethoxystyryl)-2,6-dimethylpyridin-4(1H)-one] | 260 nM
COc1ccc(/C(Cn2c(C)cc(=O)cc2C)=N/OC[S+](C)[O-])cc1OCC1CC1 (centres unmarked) [Example 43, (Z)-1-(2-(3-cyclopropylmethoxy-4-methoxyphenyl)-2-(methylsulfoxidemethoxyimido)ethyl)-2,6-dimethylpyridin-4(1H)-one] | 4.9 nM
COc1ccc(C(=O)Cn2c(C)cc(=O)cc2C)cc1OC[S+](C)[O-] (centres unmarked) [Example 33, 1-(2-(3-methylsulfoxidemethoxy-4-methoxyphenyl)-2-oxoethyl)-2,6-dimethylpyridin-4(1H)-one] | 830 nM
COc1ccc(/C=C(\C(N)=O)n2c(C)cc(=O)cc2C)cc1OCC1CC1 [Example 117] | 3600 nM
COc1ccc(/C=C/n2c(C)cc(=O)cc2C)cc1OCC1CC1 [Example 59, (E)-1-(3-cyclopropylmethoxy-4-methoxystyryl)-2,6-dimethylpyridin-4(1H)-one] | 5.1 nM

— patent US11440886B2, “Anti-inflammatory compound, and preparation and use thereof” (E-Nitiate Biopharmaceuticals (Hangzhou) Co., Ltd., priority 2018, dated 2022)
